Experimental data reported in US20150258043A1, “USE OF SPHINGOID LONG CHAIN BASES AND THEIR ANALOGS IN TREATING AND PREVENTING BACTERIAL INFECTIONS” (YEDA RESEARCH AND DEVELOPMENT CO. LTD., priority 2012, published 2015).
Entries after “also recorded” stand apart in the source; their conditions may differ. Where two headings read alike, the source gives them in different places.

Experiments:
[1] = test system: P. aeruginosa strain 762; assay: Effect of LCBs on P. aeruginosa growth in vitro (colony counts); assay type: cell-based, Pseudomonas aeruginosa; conditions: Pseudomonas aeruginosa
Procedure: P. aeruginosa strain 762 or ATCC 27853 were grown in LB medium at 37° C. until the early logarithmic phase (OD550 0.2). Bacteria were then diluted in PBS to a concentration of 5×10^3 CFU/ml. Stock solutions of sphingolipids (5 mM in 7.5% n-Octyl-β-D-Glucopyranoside (OGP) or in DMSO were prepared by sonication. Sphingolipids were added to the bacteria (0.1-50 μM in 0.075% OGP or 1% DMSO). Bacteria were incubated with sphingolipids for 2 hr at 37° C. and a sample of 200 μl bacteria solution were plated on LB agar plates, incubated overnight at 37° C. and colonies were counted.
The direct effect of sphingosine and other sphingoid long chain bases (LCBs) on the growth of P. aeruginosa was examined in vitro. Bacteria were incubated with a variety of LCBs and the EC50 values on bacterial growth were determined (Table 1).

[2] = test system: P. aeruginosa strains 762, PA14 and ATCC 27853; assay: Pulmonary P. aeruginosa infection of CF and CerS2 null mice, inhalation treatment (bacteria in lung, sickness score); assay type: in vivo, mouse
Procedure: (A,B) The number of bacteria in the lungs and the overall sickness score (C,D) of WT, CerS2 null and CF mice 3-4 h after intranasal infection with 1×10^8 CFU of P. aeruginosa strains 762 (A,C) and CF mice with strains PA14 and ATCC 27853. Mice were inhaled with 0.9% NaCl or acid ceramidase 1 h prior (b.i.) to infection, or with sphingosine or FTY720 1 h before (b.i.) or 1 h after (a.i.) infection. Sickness score 4, severely affected (unresponsive animal); score 3 affected, (heavy breathing, low body temperature, ruffled fur) score 2, moderately affected (ruffled fur, heavy breathing); score 1, slightly affected (ruffled fur); score 0, unaffected (healthy appearance). Data are means±s.d., n=4.
Pulmonary infection of CF or CerS2 mice was achieved by intranasal application of P. aeruginosa strains 762, ATCC 27853 or PA14. Mice inhaled acid ceramidase, sphingosine, FTY720 or a combination of sphingosine and ceramide 1 hr before or after pulmonary infection. The number of bacteria in the lung was determined by culturing aliquots of lysed lungs on agar plates. Clinical symptoms of the infection were scored.
Inhalation was performed with a PARI Boy SX nebulizer (PARI GmbH, Starnberg, Germany). This nebulizer generates a fine aerosol mist by pumping the fluid with an air jet. The mice inhaled the aerosol via a mask that is part of an oral inhalation device for children (LL-Nebulizer); the mask was clipped at the sides to cover only the mouse's nose and the surrounding part of the face. […]
P. aeruginosa were grown for 14 to 14.5 h on fresh tryptic soy agar (TSA) plates (Becton Dickinson Biosciences, Germany). […] The bacterial OD was determined, and the bacteria were diluted in prewarmed H/S to a concentration of 1×10^8 CFU per 20 μL. […]
Lungs were removed, homogenised and lysed for 10 min in 5 mg/ml saponin to release intracellular bacteria. […] Bacterial counts (CFU) were counted after 18 h.

[3] = superscript reference marks; cited from earlier work
[4] = test system: P. aeruginosa ATCC 27853 internalization into tracheal epithelial cells; assay: Uptake of P. aeruginosa into tracheal epithelial cells with cytochalasin B; assay type: cell-based, mouse; conditions: 10 μM cytochalasin B; strain ATCC 27853; data not shown
[5] = test system: P. aeruginosa strain 762; assay: Incubation of bacteria with sphingosine and increasing C16-ceramide, CFU count; assay type: cell-based, Pseudomonas aeruginosa; conditions: in the presence of 10 μM sphingosine
Procedure: FIGS. 4A-D. The ceramide/sphingosine ratio regulates P. aeruginosa growth. (A) Representative image of two independent experiments (left hand panel) after addition of Sytox green (1 μM) for 30 min in the absence or presence of 50 μM sphingosine or 50 μM C16-ceramide (C16-Cer) in 1% DMSO. Fluorescent and thus permeabilised bacteria were quantified (right hand panel). (B-D) The inhibitory effect of sphingosine on the growth of P. aeruginosa strain 762 is decreased in vitro and in vivo by C16-ceramide. (B) Bacteria were incubated with 10 μM sphingosine, and increasing concentrations of C16-ceramide, and growth was determined by counting colony forming unit (CFU) after 24 hrs growth on LB agar plates. Number of bacteria in the lung (C) and sickness score (D) of CF mice or WT mice inhaled with either sphingosine or a combination of sphingosine and C16-ceramide 1 h before (b.i.) with 10^8 P. aeruginosa CFU strain 762. Data are means±s.d., n=3 in (A,B) and n=4 in (C,D).
The in vitro effect of sphingosine in the presence or absence of ceramide was determined by incubation of early-logarithmic grown P. aeruginosa with sphingosine or ceramide or both in different ratios and measurement of surviving bacteria measuring the number of colony forming units 24 and 48 hrs after treatment.
Bacteria were incubated in vitro with sphingosine and increasing amounts of C16-ceramide. […]

## CCCCCCCCc1ccc(CCC(N)(CO)CO)cc1 [FTY720, 2-amino-2-[2-(4-octylphenyl)ethyl]propane-1,3-diol]
[1]; 762, Table 3, Example 3, method of Example 2, n=3 for each analog, given as ranges, read-out: EC50
  EC50: 1 to 5 µM
[1]; P. aeruginosa strain 762, 2 hrs at 37° C. in 0.075% OGP, colonies counted, at least 3 independent experiments, read-out: EC50 (μM) ± S.D.
  EC50: 1.9 µM
[2]; CF and CerS2 null mice, inhalation (125 μM) 1 h before or 1 h after intranasal infection with 1×10^8 CFU
  protection from pulmonary P. aeruginosa infection: completely protected CF and CerS2 null mice from P. aeruginosa infection and even eliminated an existing infection; also recorded: potent inhibitor in vivo; also recorded: rescue CF and CerS2 null mice from pulmonary P. aeruginosa infection; also recorded: prevents pulmonary P. aeruginosa infection
[3]
  pK (in PBS): 7.8^3

## C=C1[C@@H](C)[C@H]2[C@H](Cc3ccccc3)NC(=O)[C@]23OC(=O)/C=C/[C@H](O)CCC[C@@H](C)C/C=C/[C@H]3[C@@H]1O [cytochalasin B]
[4]
  internalization of P. aeruginosa into tracheal epithelial cells: prevented internalization

## CCCCCCCCCCCCC/C=C/[C@@H](O)[C@H](CO)NC(=O)CCCCCCCCCCCCCCC [C16-ceramide]
[2]; CF mice, C16-ceramide and sphingosine at a 1:1 molar ratio, 1 h before infection, strain 762
  effect of co-inhaled C16-ceramide on protection by sphingosine: abrogated the protective effect of sphingosine and restored susceptibility to P. aeruginosa infection
[5]
  C16-ceramide concentration restoring bacterial growth: ≥ 10 µM
